Assay results taken from ChEMBL document CHEMBL4270587, “Difuran-substituted quinoxalines as a novel class of PI3Kα H1047R mutant inhibitors: Synthesis, biological evaluation and structure-activity relationship” (Eur J Med Chem, 2018).

Assays:
HCT-116 = assay: cells; settings: Homo sapiens, HCT-116, 72 h
[1] = biological target: PI3-kinase p110-alpha/p85-alpha (Homo sapiens, UniProt P42336, H1047R); assay: Inhibition of recombinant full length PI3K p85alpha/p110alpha H1047R mutant (unknown origin) expressed in baculovirus infected sf9 cells using PIP2 as substrate preincubated for 10 mins followed by ATP addition and measured after 45 mins by HTRF assay
[2] = biological target: PI3-kinase p110-alpha/p85-alpha (Homo sapiens, UniProt P42336); assay: Inhibition of recombinant full length PI3K p110alpha/p85alpha (unknown origin) expressed in baculovirus infected sf9 cells using PIP2 as substrate preincubated for 10 mins followed by ATP addition and measured after 45 mins by HTRF assay
MCF7 = assay: cells; settings: Homo sapiens, MCF7, 72 h
Description: Antiproliferative activity against human MCF7 cells after 72 hrs by CCK8 assay

PI3-kinase p110-alpha/p85-alpha (Homo sapiens, UniProt P42336, H1047R), sequence (P42336 whole entry H1047R, looked up): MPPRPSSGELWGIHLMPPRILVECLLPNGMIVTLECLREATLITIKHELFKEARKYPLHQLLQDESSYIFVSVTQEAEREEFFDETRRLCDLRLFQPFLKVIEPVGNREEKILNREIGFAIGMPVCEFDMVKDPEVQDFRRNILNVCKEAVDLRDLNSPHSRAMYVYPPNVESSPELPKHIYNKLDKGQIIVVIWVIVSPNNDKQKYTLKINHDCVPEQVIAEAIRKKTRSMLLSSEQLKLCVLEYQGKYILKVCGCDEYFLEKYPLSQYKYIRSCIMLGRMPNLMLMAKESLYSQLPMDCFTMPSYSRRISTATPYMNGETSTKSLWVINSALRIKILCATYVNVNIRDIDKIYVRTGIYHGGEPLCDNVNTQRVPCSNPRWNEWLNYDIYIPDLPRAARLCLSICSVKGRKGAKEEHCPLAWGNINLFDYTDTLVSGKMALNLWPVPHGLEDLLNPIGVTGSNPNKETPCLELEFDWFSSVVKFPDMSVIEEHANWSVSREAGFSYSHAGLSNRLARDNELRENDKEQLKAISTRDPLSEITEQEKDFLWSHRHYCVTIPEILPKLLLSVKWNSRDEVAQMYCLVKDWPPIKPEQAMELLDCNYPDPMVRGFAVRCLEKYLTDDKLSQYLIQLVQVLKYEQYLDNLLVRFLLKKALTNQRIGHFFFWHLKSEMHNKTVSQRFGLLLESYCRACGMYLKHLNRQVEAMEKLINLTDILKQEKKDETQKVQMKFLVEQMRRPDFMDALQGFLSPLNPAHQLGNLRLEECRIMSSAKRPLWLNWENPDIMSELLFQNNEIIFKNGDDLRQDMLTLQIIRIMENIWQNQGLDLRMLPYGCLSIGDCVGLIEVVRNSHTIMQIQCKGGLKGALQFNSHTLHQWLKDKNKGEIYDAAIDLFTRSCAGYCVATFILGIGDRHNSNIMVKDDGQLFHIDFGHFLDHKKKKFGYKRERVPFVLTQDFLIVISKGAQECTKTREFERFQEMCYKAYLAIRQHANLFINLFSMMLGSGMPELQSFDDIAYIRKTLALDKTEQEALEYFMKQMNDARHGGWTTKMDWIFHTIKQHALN
PI3-kinase p110-alpha/p85-alpha (Homo sapiens, UniProt P42336), sequence (P27986 whole entry): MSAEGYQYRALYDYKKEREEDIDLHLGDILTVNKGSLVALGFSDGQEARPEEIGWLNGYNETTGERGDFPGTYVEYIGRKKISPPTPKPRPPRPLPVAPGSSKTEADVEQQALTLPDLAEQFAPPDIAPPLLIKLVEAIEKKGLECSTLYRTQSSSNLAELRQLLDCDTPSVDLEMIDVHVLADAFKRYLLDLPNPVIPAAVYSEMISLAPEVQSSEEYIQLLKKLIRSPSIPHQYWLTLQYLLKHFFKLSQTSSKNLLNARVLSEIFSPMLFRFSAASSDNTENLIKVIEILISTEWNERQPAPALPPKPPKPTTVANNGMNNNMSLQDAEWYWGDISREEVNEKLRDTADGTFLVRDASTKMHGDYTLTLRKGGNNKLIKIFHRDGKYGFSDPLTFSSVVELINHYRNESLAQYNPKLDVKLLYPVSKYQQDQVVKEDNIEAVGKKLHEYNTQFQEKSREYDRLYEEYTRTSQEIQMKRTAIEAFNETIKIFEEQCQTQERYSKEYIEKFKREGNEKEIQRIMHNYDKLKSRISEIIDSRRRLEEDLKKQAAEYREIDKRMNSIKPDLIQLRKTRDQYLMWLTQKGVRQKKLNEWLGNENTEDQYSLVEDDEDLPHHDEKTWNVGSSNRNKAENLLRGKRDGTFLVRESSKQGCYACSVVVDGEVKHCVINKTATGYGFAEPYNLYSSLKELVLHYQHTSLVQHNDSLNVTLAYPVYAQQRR
PI3-kinase p110-alpha/p85-alpha (Homo sapiens, UniProt P42336), sequence (P42336 whole entry): as the sequence (P42336 whole entry H1047R, looked up) above, with R1047H counted along it

Brc1ccc2nc(-c3ccco3)c(-c3ccco3)nc2c1
IC50 (HCT-116): > 50 µM
EC50 [1]: 33.5 µM
EC50 [2]: 27.6 µM
IC50 (MCF7): > 50 µM

CC(C)(C)OC(=O)n1cccc1-c1cc2nc(-c3ccco3)c(-c3ccco3)nc2cc1Br
IC50 (HCT-116): > 50 µM
EC50 [1]: 18.6 µM
IC50 (MCF7): > 50 µM

Clc1cc(Cl)c2nc(-c3ccco3)c(-c3ccco3)nc2c1
IC50 (HCT-116): > 50 µM
EC50 [1]: 76 µM
EC50 [2]: 54.6 µM
IC50 (MCF7): > 50 µM

Brc1cc2nc(-c3ccco3)c(-c3ccco3)nc2cc1-c1ccncc1
IC50 (HCT-116): 45.7 µM
EC50 [1]: 10.8 µM
IC50 (MCF7): > 50 µM

Brc1cc2nc(-c3ccco3)c(-c3ccco3)nc2cc1-c1cc2ccccc2s1
IC50 (HCT-116): 38.5 µM
EC50 [1]: 1.2 µM
IC50 (MCF7): 40.9 µM
